Measurements: patent US20110027205A1, “USE OF MYRTLE EXTRACT AS DEPIGMENTING AGENT” (PIERRE FABRE DERMO-COSMETIQUE, priority 2008, published 2011)

Test system: melanocytes
Assay: Activity on melanogenesis (melanin content of melanocytes, 450 nm)
Format: cell-based
Settings: Melanocyte, 72 hours, read-out: % inhibition of melanin synthesis
Description: The melanocytes are left to incubate in a suitable culture medium at 37° C. for 72 hours in contact with the myrtle extract according to example 1, at different concentrations, and with hydroquinone, the reference substance. At the end of the incubation period, the melanocytes are collected and washed. The cells are then treated with a sodium solution to extract the melanin. The stained solutions are then assayed under 450 nm spectrophotometry for their melanin content using a calibration curve. A melanogenesis-inhibiting activity of the tested products will translate as a lower melanin content in the extracted melanocyte solutions. A prior cytotoxicity test is evidently performed on these same cells to verify the non-toxicity of the extracts at the tested concentrations.

In the case of `Oc1ccc(O)cc1` [Hydroquinone], the inhibition at 5 µM (0.005 mM) was 35.7% and the inhibition at 10 µM (0.01 mM) was 58%.
